Measured values taken from patent EP4624457A1, “I[…] DERIVATIVES, I[…] NEURODEGENERATIVE DISEASES” (Centre National de la Recherche Scientifique, priority 2024, dated 2025).
Read-outs that look alike come from different tables or passages of the source.

Experiments:
Assay in all cases: Cell viability / proliferation assay (CellTiter Glo luminescence, 72 h)
Assay type in all cases: cell-based
[1] = system: HT29 colorectal carcinoma cells; conditions: for IC50: 72 h incubation, mean ± SEM from three distinct experiments
Procedure: (§1) • Figure 1 represents the chemical structure of ingrilimine according to compound (Illa) formula. • Figure 2 represents the cytotoxic activity of ingrilimine. A2780 ovarian and HT29 colorectal carcinoma cells were grown in RPMI 1640 supplemented with 10% fetal calf serum (FCS) and 1% glutamine. U87-MG glioblastoma cells were grown in Dulbecco minimal essential medium containing 4.5 g/L glucose, 10% FCS and 1% glutamine at 37 °C in a humidified atmosphere containing 5% CO2. For IC50 determination, the cells were seeded in 96-well plates (3 × 10^3 cells/well) containing 90 µL of growth medium. After 24 h of culture, the cells were treated with ingrilimine at 10 different final concentrations. Cell viability was determined by luminescence after 72 h incubation. (a) Effect of ingrilimine on A2780 ovarian carcinoma cells. (b) Effect of ingrilimine on U87-MG glioblastoma cells. (c) Effect of ingrilimine on U87-MG glioblastoma cells • Figure 3a-3f represent the mitochondrial dysfunction provoked by ingrilimine. HCT116 cells were treated with ingrilimine in the range of […] for 24h and 48h. Sector Q normal cells that accumulated the JC-1 dye (fluorescence emission 590 nm). […] (a) Non-treated cells incubated with the carrier (DMSO) for 24 h. (b) HCT116 cells incubated with […] ingrilimine for 24 h. (c) HCT116 cells incubated with 250 nM ingrilimine for 24 h. (d) Non-treated cells incubated with the carrier (DMSO) for 48 h. (e) HCT116 cells incubated with […] ingrilimine for 48 h. (f) HCT116 cells incubated with 250 nM ingrilimine for 48. Changes in fluorescence emission were recorded by flow cytometry using the JC-1 mithocondrial membrane potential-dependent fluorescent dye. NT = non-treated cells; IngX = ingrilimine. • Figure 4a-4f represents phosphatidylserine exposure provoked by ingrilimine. A2780 cancer cells were incubated with ingrilimine in the range of 10-500 nM before staining with FITC-Annexin V and propidium iodide. Quadrants D1 and D2 with dead or necrotic cells, quadrant D3 with normal cells and quadrant D4 with apoptotic cells following phosphatidylserine exposure. (a) Non-treated A2780 cells incubated with the carrier (DMSO) for 24h. (b) A2780 cells incubated with 10 nM ingrilimine for 24 h. (c) A2780 cells incubated with 250 nM ingrilimine for 24 h. (d) Non-treated A2780 cells incubated with the carrier (DMSO) for 48 h. (e) A2780 cells incubated with 10 nM ingrilimine for 48 h. (f) A2780 cells incubated with 250 nM ingrilimine for 48. […] exposure in A2780 cell was quantified by flow cytometry using FITC-Annexin V. Dead or necrotic cells were detected using the vital dye propridium iodide. NT = non-treated cells; IngX = ingrilimine. • Figure 5 represents the antagonistic activity of ingrilimine (named "IngX" in the figure) and portimine (named "Port A" in the figure) against nicotinic acetylcholine receptors recorded by two-electrodes voltage clamp electrophysiology on Xenopus laevis oocytes. Clamped Xenopus laevis oocytes having incorporated the muscle (α1)2βγδ nAChR subtype from Torpedo marmorata (filled squares), or expressing the neuronal α3β2 nAChR subtype from rat (filled triangles), or expressing the human neuronal α7 nAChR subtype (filled circles) were exposed to portimine (100 nM - 1 mM) for 45 seconds. […] A Xenopus laevis oocyte expressing the human α7 nAChR subtype was exposed to 100 µM acetylcholine triggering the immediate opening of the receptor's channel (black bold line) followed by the very-fast closure of the channel ([…]) that became insensitive to acetylcholine during the rest of the 5 seconds exposure (desensitization). When a Xenopus laevis oocyte expressing the human α7 nAChR subtype was exposed first to 10 nM ingrilimine for 45 seconds and then to a mixture (Mix) containing 10 nM ingrilimine and 100 µM acetylcholine, the receptor's channel was closed denoting a strong antagonistic activity of the tested toxin against the α7 nAChR subtype (dotted line). […]

[2] = system: U87-MG glioblastoma cells; conditions: for IC50: 72 h incubation, mean ± SEM from three distinct experiments
Procedure: as §1

[3] = system: A2780 ovarian carcinoma cells
Procedure: as §1

SMILES | cytotoxic activity, times less potent compared to portimine-A ([1]; HT29, ratio of IC50) | IC50 ([1]; Homo sapiens, HT-29) | IC50 ([2]; Homo sapiens, U-87 MG) | cytotoxic activity, times less potent compared to portimine-A ([2]; U87-MG, ratio of IC50) | IC50 ([3]; Homo sapiens, A2780, 72 h incubation, mean ± SEM from three distinct experiments, read-out: IC50 ± SEM (nM) A2780) | IC50 ([3]; Homo sapiens, A2780, HT29 and U87-MG together, read-out: IC50 values, range over the three cancer cell lines tested) | times less potent than portimine-A to kill the A2780 ovarian cancer cells ([3]; ratio of IC50) | IC50 [1] | IC50 [2] | IC50 ([3]; 72 h incubation, mean ± SEM from three distinct experiments, read-out: IC50 ± SEM (nM) A2780)
C=CC1=C[C@@H]2C[C@@H](O)[C@@H](O)/C(C)=C/C/C(C)=C/CCC3=NCCC[C@]32CC1 [Ingrilimine, ingrilimine] | 5 times | 34.3 ± 1.1 nM | 44.2 ± 0.3 nM | 5 times | 10.6 ± 0.2 nM | 10 to 45 nM | 13 times | – | – | –
C=CC1=C[C@@H]2[C@@H]3O[C@]4(CC[C@H](O4)[C@@H](C)C[C@@H](O)C3=O)C[C@H](O)C3=NCC[C@@]32CC1 [Portimine-A] | – | – | – | – | – | – | – | 6.4 ± 0.1 nM | 8.1 ± 7.8 nM | 0.77 ± 0.1 nM
